Data published in patent US10597388B2, “Pyridazinone herbicides” (FMC CORPORATION, priority 2014, dated 2020).

Columns and labels:
Experiment in all cases: Test A greenhouse herbicide test, pre- and postemergence
Type in all cases: in vivo
[1] = test system: ragweed (common ragweed, Ambrosia elatior)
In short: (§1)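 Seeds sown in loam–sand blend got a preemergence directed soil spray of compound in non-phytotoxic solvent with surfactant. Postemergence treatment was given at 2–10 cm, one- to two-leaf stage. After ~10 d in greenhouse, injury was rated visually vs untreated controls, 0 (no effect) to 100 (complete control).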

kochia (Kochia scoparia) = test system: kochia (Kochia scoparia)
In short: as §1

[2] = test system: foxtail, giant (giant foxtail, Setaria faberii)
In short: as §1

[3] = test system: barnyardgrass (Echinochloa crus-galli)
In short: as §1

[4] = test system: pigweed (Amaranthus retroflexus)
In short: as §1

corn (Zea mays) = conditions: Postemergence
In short: as §1

[5] = test system: wheat (Triticum aestivum); conditions: Postemergence
In short: as §1

[6] = test system: ryegrass, Italian (Italian ryegrass, Lolium multiflorum)
In short: as §1

[7] = Postemergence, 125 g ai/ha, 0 to 100 scale where 0 is no effect and 100 is complete control
[8] = Postemergence, 500 g ai/ha, visual rating after approx. 10 d, 0 to 100 scale (0 no effect, 100 complete control)
[9] = Preemergence, 125 g ai/ha, 0 to 100 scale where 0 is no effect and 100 is complete control
[10] = Preemergence, 500 g ai/ha, 0 to 100 scale where 0 is no effect and 100 is complete control
[11] = 125 g ai/ha, 0 to 100 scale where 0 is no effect and 100 is complete control
[12] = 500 g ai/ha, visual rating after approx. 10 d, 0 to 100 scale (0 no effect, 100 complete control)

Row | Structure (SMILES) | Plant response rating, Ragweed [1, 7] | Plant response rating, Ragweed [1, 8] | Ragweed plant response rating [1, 9] | Plant response rating, Ragweed [1, 10] | Plant response rating, Kochia (kochia (Kochia scoparia); [7]) | Plant response rating, Kochia (kochia (Kochia scoparia); [8]) | Kochia plant response rating (kochia (Kochia scoparia); [9]) | Plant response rating, Kochia (kochia (Kochia scoparia); [10]) | Plant response rating, Foxtail, Giant [2, 7] | Plant response rating, Foxtail, Giant [2, 8] | Foxtail, Giant plant response rating [2, 9] | Plant response rating, Foxtail, Giant [2, 10] | Plant response rating, Barnyardgrass [3, 7] | Plant response rating, Barnyardgrass [3, 8] | Barnyardgrass plant response rating [3, 9] | Plant response rating, Barnyardgrass [3, 10] | Plant response rating, Pigweed [4, 7] | Plant response rating, Pigweed [4, 8] | Pigweed plant response rating [4, 9] | Plant response rating, Pigweed [4, 10] | further results
1 | CCC(=O)Oc1c(C)nn(C)c(=O)c1-c1ccc(F)c2ccccc12 [Compound 113] | 90 | 100 | 70 | 90 | 100 | 100 | 90 | 100 | 40 | 90 | 70 | 100 | 40 | 90 | 70 | 100 | 90 | 100 | 100 | 100 | Plant response rating, Corn (corn (Zea mays); [11]): 20; Plant response rating, Corn (corn (Zea mays); [12]): 70; Plant response rating, Wheat [5, 11]: 30; Plant response rating, Wheat [5, 12]: 70; Plant response rating, Ryegrass, Italian [6, 7]: 100; Plant response rating, Ryegrass, Italian [6, 8]: 100; Ryegrass, Italian plant response rating [6, 9]: 100; Plant response rating, Ryegrass, Italian [6, 10]: 100
2 | CC(=O)Oc1c(Cl)nn(C)c(=O)c1-c1c(C)sc2ccc(Cl)cc12 [Compound 116] | 70 | 100 | 90 | 90 | 30 | 60 | 30 | 100 | 70 | 100 | 80 | 100 | 20 | 90 | 70 | 100 | 70 | 100 | 90 | 90 | Plant response rating, Corn (corn (Zea mays); [11]): 0; Plant response rating, Corn (corn (Zea mays); [12]): 30; Plant response rating, Wheat [5, 11]: 20; Plant response rating, Wheat [5, 12]: 50; Plant response rating, Ryegrass, Italian [6, 7]: 90; Plant response rating, Ryegrass, Italian [6, 8]: 100; Ryegrass, Italian plant response rating [6, 9]: 80; Plant response rating, Ryegrass, Italian [6, 10]: 100
3 | Cc1nn(C)c(=O)c(-c2c(C)sc3ccc(C(F)(F)F)cc23)c1O [Compound 121] | 90 | 90 | 60 | 80 | 70 | 80 | 0 | 30 | 60 | 80 | 80 | 80 | 30 | 50 | 20 | 50 | 90 | 90 | 100 | 100 | Plant response rating, Corn (corn (Zea mays); [11]): 20; Plant response rating, Corn (corn (Zea mays); [12]): 20; Plant response rating, Wheat [5, 11]: 0; Plant response rating, Wheat [5, 12]: 20; Plant response rating, Ryegrass, Italian [6, 7]: 90; Plant response rating, Ryegrass, Italian [6, 8]: 100; Ryegrass, Italian plant response rating [6, 9]: 80; Plant response rating, Ryegrass, Italian [6, 10]: 90
4 | COC(=O)Oc1c(C)nn(C)c(=O)c1-c1ccc(F)c2ccccc12 [Compound 130] | 70 | 100 | 60 | 90 | 100 | 100 | 60 | 100 | 70 | 90 | 30 | 90 | 60 | 90 | 30 | 100 | 100 | 100 | 90 | 100 | Plant response rating, Corn (corn (Zea mays); [11]): 0; Plant response rating, Corn (corn (Zea mays); [12]): 30; Plant response rating, Wheat [5, 11]: 0; Plant response rating, Wheat [5, 12]: 30; Plant response rating, Ryegrass, Italian [6, 7]: 100; Plant response rating, Ryegrass, Italian [6, 8]: 100; Ryegrass, Italian plant response rating [6, 9]: 100; Plant response rating, Ryegrass, Italian [6, 10]: 100
5 | CCC(=O)Oc1c(OC)nn(C)c(=O)c1-c1c(C)sc2ccc(Cl)cc12 [Compound 131] | 100 | 90 | 40 | 60 | 60 | 80 | 0 | 20 | 50 | 80 | 80 | 90 | 0 | 20 | 0 | 40 | 60 | 90 | 80 | 100 | Plant response rating, Corn (corn (Zea mays); [11]): 0; Plant response rating, Corn (corn (Zea mays); [12]): 10; Plant response rating, Wheat [5, 11]: 0; Plant response rating, Wheat [5, 12]: 20; Plant response rating, Ryegrass, Italian [6, 7]: 90; Plant response rating, Ryegrass, Italian [6, 8]: 90; Ryegrass, Italian plant response rating [6, 9]: 90; Plant response rating, Ryegrass, Italian [6, 10]: 90
6 | CC(=O)Oc1c(C)nn(C)c(=O)c1-c1c(C)sc2ccc(C(F)(F)F)cc12 [Compound 132] | 100 | 100 | 80 | 90 | 50 | 80 | 60 | 90 | 60 | 80 | 70 | 90 | 0 | 30 | 0 | 70 | 60 | 90 | 90 | 100 | Plant response rating, Corn (corn (Zea mays); [11]): 0; Plant response rating, Corn (corn (Zea mays); [12]): 10; Plant response rating, Wheat [5, 11]: 0; Plant response rating, Wheat [5, 12]: 20; Plant response rating, Ryegrass, Italian [6, 7]: 100; Plant response rating, Ryegrass, Italian [6, 8]: 100; Ryegrass, Italian plant response rating [6, 9]: 90; Plant response rating, Ryegrass, Italian [6, 10]: 90
7 | CCC(=O)Oc1c(C)nn(C)c(=O)c1-c1ccc(Br)c2ccccc12 [Compound 134] | 100 | 100 | 80 | 90 | 100 | 100 | 70 | 100 | 20 | 80 | 50 | 90 | 20 | 60 | 20 | 90 | 90 | 100 | 100 | 100 | Plant response rating, Corn (corn (Zea mays); [11]): 20; Plant response rating, Corn (corn (Zea mays); [12]): 50; Plant response rating, Wheat [5, 11]: 30; Plant response rating, Wheat [5, 12]: 30; Plant response rating, Ryegrass, Italian [6, 7]: 100; Plant response rating, Ryegrass, Italian [6, 8]: 100; Ryegrass, Italian plant response rating [6, 9]: 100; Plant response rating, Ryegrass, Italian [6, 10]: 100
